In patent US11578087B2, “Oxaborole esters and uses thereof” (priority 2016, dated 2023) one finds IC50 data, which are given here for eleven molecules.

Each structure is given as a SMILES string. pIC50: −log10 of the molar value.

In assay [1] the test system is T. cruzi amastigote (Td Tomato-modified) in Vero cells. Nature of the assay: In vitro IC50 measurement of T. cruzi amastigote killing using Td Tomato-modified T. cruzi. The settings on record: Trypanosoma cruzi, 72 h, fluorescence, read-out: IC50: I Org. amastigote Growth T. cruzi 3 d. In kind it is cell-based. In short, it runs like this:
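IC50/IC90 came from nonlinear regression of Day 3 minus Day 0 fluorescence (544/612 nm), correcting for input parasites. Final compound concentrations spanned 5 nM–5 uM on Td Tomato T. cruzi-infected Vero cells, 72 h at 37 °C.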

Assay [2] concerns IL3000 T. congolense (drug sensitive) strain. Kind of assay: In vitro Alamar Blue 72 h drug sensitivity assay for T. congolense. In kind it is cell-based, Trypanosoma congolense. The following applies: Trypanosoma congolense, 72 h, bloodstream form, 69 h + 3 h Resazurin, 34° C., read-out: IC50: I Org. Growth T. congolense 3 d. In outline: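 IC50 values derive from 11-point curves averaged over at least three independent runs, with fluorescence read at 536 nm excitation and 588 nm emission. Resazurin was added for a final 3 h after 69 h compound exposure of bloodstream forms (HMI medium, 20% bovine serum, 34° C, 5% CO2).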

As to `Cc1c(C(=O)N[C@H](C(=O)OCCN2CCOCC2C)C(C)C)ccc2c1B(O)OC2` (stereo partly drawn) [Example 6-219, 2-(3-methylmorpholino)ethyl (1-hydroxy-7-methyl-1,3-dihydrobenzo[c][1,2]oxaborole-6-carbonyl)-L-valinate], the pIC50 in assay [1] was 6.00 to 7.68; in assay [2], greater than 9.30.
For `CCS(=O)(=O)c1ccc(COC(=O)[C@@H](NC(=O)c2ccc3c(c2C)B(O)OC3)C(C)C)cc1` [Example 6-093, 4-(Ethylsulfonyl)benzyl (1-hydroxy-7-methyl-1,3-dihydrobenzo[c][1,2]oxaborole-6-carbonyl)-L-valinate] the same measures were 6.00 to 7.68 and 8.00 to 9.29.
For `Cc1c(C(=O)N[C@H](C(=O)OCc2ccc(C#N)cn2)C(C)C)ccc2c1B(O)OC2` [Example 6-200, (5-cyanopyridin-2-yl)methyl (1-hydroxy-7-methyl-1,3-dihydrobenzo[c][1,2]oxaborole-6-carbonyl)-L-valinate], in that order: no less than 7.70 and greater than 9.30.
For `Cc1c(C(=O)N[C@H](C(=O)OCc2cccc(CN3CCN(C)CC3)c2)C(C)C)ccc2c1B(O)OC2` [Example 6-082, 3-((4-Methylpiperazin-1-yl)methyl)benzyl (1-hydroxy-7-methyl-1,3-dihydrobenzo[c][1,2]oxaborole-6-carbonyl)-L-valinate], in that order: 6.00 to 7.68 and 8.00 to 9.29.
Consider `Cc1c(C(=O)N[C@H](C(=O)OCc2ccc(Cl)c(OCCN3CCOCC3)c2)C(C)C)ccc2c1B(O)OC2` [Example 6-167, 4-Chloro-3-(2-morpholinoethoxy)benzyl (1-hydroxy-7-methyl-1,3-dihydrobenzo[c][1,2]oxaborole-6-carbonyl)-L-valinate], for which the pIC50 in assay [1] was no less than 7.70; in assay [2] it was greater than 9.30.
For `Cc1c(C(=O)N[C@H](C(=O)OCCc2ccc(F)cc2)C(C)C)ccc2c1B(O)OC2` [Example 6-121, 4-Fluorophenethyl (1-hydroxy-7-methyl-1,3-dihydrobenzo[c][1,2]oxaborole-6-carbonyl)-L-valinate], in that order: no less than 7.70 and greater than 9.30.
With `Cc1c(C(=O)N[C@H](C(=O)OCCN2CCCC2)C(C)C)ccc2c1B(O)OC2` [Example 6-095, 2-(Pyrrolidin-1-yl)ethyl (1-hydroxy-7-methyl-1,3-dihydrobenzo[c][1,2]oxaborole-6-carbonyl)-L-valinate], the pIC50 in assay [1] is no more than 6.00; in assay [2], 8.00 to 9.29.
For the molecule `Cc1c(C(=O)N[C@H](C(=O)OCC2CCCC2)C(C)(C)O)ccc2c1B(O)OC2` [Example 6-228, Cyclopentylmethyl (S)-3-hydroxy-2-(1-hydroxy-7-methyl-1,3-dihydrobenzo[c][1,2]oxaborole-6-carboxamido)-3-methylbutanoate], the pIC50 in assay [1] was 6.00 to 7.68; in assay [2], greater than 9.30.
For the molecule `Cc1c(C(=O)N[C@H](C(=O)OC[C@@H]2COC(C)(C)O2)C(C)C)ccc2c1B(O)OC2` [Example 6-145, ((S)-2,2-Dimethyl-1,3-dioxolan-4-yl)methyl (1-hydroxy-7-methyl-1,3-dihydrobenzo[c][1,2]oxaborole-6-carbonyl)-L-valinate], the pIC50 in assay [1] was no less than 7.70; in assay [2], 8.00 to 9.29.
With `COCC(COC)OC(=O)[C@@H](NC(=O)c1ccc2c(c1C)B(O)OC2)C(C)C` [Example 6-139, 1,3-Dimethoxypropan-2-yl (1-hydroxy-7-methyl-1,3-dihydrobenzo[c][1,2]oxaborole-6-carbonyl)-L-valinate], the pIC50 is 6.00 to 7.68 in assay [1] and 5.30 to 8.00 in assay [2].
As to `Cc1c(C(=O)N[C@H](C(=O)OCc2ccc(C(=O)N3CCNCC3)cc2)C(C)C)ccc2c1B(O)OC2` [Example 6-102, 4-(Piperazine-1-carbonyl)benzyl (1-hydroxy-7-methyl-1,3-dihydrobenzo[c][1,2]oxaborole-6-carbonyl)-L-valinate], the pIC50 in assay [1] is no more than 6.00; in assay [2] it was 5.30 to 8.00.

For orientation: pIC50 means the negative decadic logarithm of the IC50, by convention in mol/L.
